# Test: Test of solubility: mixture of tetrahydrocurcuminoids in oils, microscopic examination
# Assay type: physicochemical
# Details: 1 g Tetrahydrocurcuminoids CG adjusted to 10 g with the oil, 15 minutes at 80° C., cooled 24 hours at room temperature
# Method: Two amide oils in accordance with the invention are compared to 13 conventional oils used in cosmetics. Their solubilizing power is studied on a mixture of tetrahydrocurcuminoids of formula (I): i.e., the commercial product Tetrahydrocurcuminoids CG from Sabinsa as defined above.
# 1 g of a mixture of tetrahydrocurcuminoids is weighed and adjusted to 10 g with the oil studied. The mixture is heated for 15 minutes on a waterbath at 80° C. It is allowed to cool for 24 hours at room temperature and a microscopic examination is performed.
compound,measurement,value
CCCCN(CCC(=O)OCC)C(C)=O [N-acetyl-N-butylaminopropionate],SOLUBILITY AFTER 24 HOURS AT ROOM TEMPERATURE,completely dissolve the mixture of tetrahydrocurcuminoids

# Source: patent US6872401B2, “Cosmetic/dermatological compositions comprising a tetrahydrocurcuminoid and an amide oil” (L'Oreal, priority 2002, dated 2005)
